Publication PMC5218480 (PLoS ONE, 2017)

Tested on: MV-4-11 and HL-60 cells
Test: Quantitative real time PCR (qPCR) of CDKN1A, CDKN1C, GATA2, HES1
Format: cell-based, human
Conditions: MV-4-11 and HL-60, 48 hours
Method: RNA isolations were performed on a Qiacube (Qiagen) using the RNeasy Micro Kit (Qiagen) according to manufacturer’s protocol. RNA was converted to cDNA using the High Capacity RNA-to-cDNA Kit (Life Technologies) and qPCR performed using the Taqman Gene Expression Max Mix according to manufacturer’s protocol (Applied Bioscience). The following ThermoFisher taqman probes were used: GATA2 (Hs01060665_g1), GAPDH (Hs0275899_g1), ACTB (Hs00231119_m1), CDKN1A (Hs00355782_m1), CDKN1C (Hs00175938_m1), HES1 (Hs00172878_m1).

Structure (SMILES)	expression of CDKN1A, CDKN1C, GATA2 and HES1 (qPCR)
Nc1ccc(-c2cccs2)cc1NC(=O)c1ccc2c(c1)cc(C1CC1)n2CCN1CCOCC1 [ACY-1035]	up-regulated
Nc1ncn([C@@H]2O[C@H](CO)[C@@H](O)[C@H]2O)c(=O)n1 [azacitidine]	up-regulated
